From ChEMBL document CHEMBL1201862, “PubChem BioAssay data set” (2004)
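Dose response: 5 concentrations. Exposure: 48 h. Format: 96-well plates. Endpoint: linear interpolation; highest concentration if not reached. GI50 is the concentration that inhibits growth by half.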 The source made the active and inactive calls. No stated cut-off is given here; in the data, active = GI50 up to about 1.1 µM and inactive = higher.

Columns and labels:
Assay in all cases: NCI tumour cell line growth inhibition, 48 h
NCI/ADR-RES = system: NCI/ADR-RES
SK-MEL-5 = system: SK-MEL-5
SF-539 = system: SF-539
Hs-578T = system: Hs-578T
SK-MEL-2 = system: SK-MEL-2
U-251 = system: U-251
MDA-MB-231 = system: MDA-MB-231
MCF7 = system: MCF7
T47D = system: T47D
UACC-257 = system: UACC-257
COLO 205 = system: COLO 205
SNB-75 = system: SNB-75
K562 = system: K562
UO-31 = system: UO-31
M14 = system: M14
OVCAR-8 = system: OVCAR-8
CCRF-CEM = system: CCRF-CEM
KM12 = system: KM12
CAKI-1 = system: CAKI-1

| SMILES | GI50 (NCI/ADR-RES) | GI50 (SK-MEL-5) | GI50 (SF-539) | GI50 (Hs-578T) | GI50 (SK-MEL-2) | GI50 (U-251) | GI50 (MDA-MB-231) | GI50 (MCF7) | GI50 (T47D) | GI50 (UACC-257) | GI50 (COLO 205) | GI50 (SNB-75) | GI50 (K562) | GI50 (UO-31) | GI50 (M14) | GI50 (OVCAR-8) | GI50 (CCRF-CEM) | GI50 (KM12) | GI50 (CAKI-1) |
| --- | --- | --- | --- | --- | --- | --- | --- | --- | --- | --- | --- | --- | --- | --- | --- | --- | --- | --- | --- |
| CCC(=O)Nc1ccc(/N=N/N(C)C)cc1 | > 100 µM (inactive) | 53.7 µM (inactive) | > 100 µM (inactive) | > 100 µM (inactive) | > 100 µM (inactive) | > 100 µM (inactive) | > 100 µM (inactive) | > 100 µM (inactive) | 6.64 µM (inactive) | > 100 µM (inactive) | 63.4 µM (inactive) | > 100 µM (inactive) | 50.2 µM (inactive) | > 100 µM (inactive) | > 100 µM (inactive) | > 100 µM (inactive) |  |  |  |
| COC(=O)[C@@H](Cc1ccccc1)N1O[C@]12CCCC[C@@H]2NC(=O)OC(C)(C)C (stereo partly specified) | 23.1 µM (inactive) | 19.5 µM (inactive) | 19.2 µM (inactive) | 21.6 µM (inactive) | 20.4 µM (inactive) | 26.9 µM (inactive) | 19.5 µM (inactive) | 15.2 µM (inactive) | 24.7 µM (inactive) | 36.4 µM (inactive) | 26.7 µM (inactive) | 30.4 µM (inactive) | 40.1 µM (inactive) | 14.5 µM (inactive) | 19.1 µM (inactive) |  | 14.7 µM (inactive) | 48 µM (inactive) | 35.8 µM (inactive) |
| CC(C)=NOC(=O)Nc1cccc2c1OCO2 | > 100 µM (inactive) | > 100 µM (inactive) | > 100 µM (inactive) | 28.8 µM (inactive) | > 100 µM (inactive) | > 100 µM (inactive) | > 100 µM (inactive) | > 100 µM (inactive) | > 100 µM (inactive) | > 100 µM (inactive) | > 100 µM (inactive) | > 100 µM (inactive) |  | > 100 µM (inactive) | > 100 µM (inactive) | > 100 µM (inactive) |  | 71.1 µM (inactive) | > 100 µM (inactive) |
| FC(F)(F)c1ccccc1C1SCC2=Nc3ccccc3CN21 (stereo unspecified) | 18.3 µM (inactive) | 14.7 µM (inactive) | 10.8 µM (inactive) | 12.3 µM (inactive) |  | 28.4 µM (inactive) | 23.5 µM (inactive) | 13.6 µM (inactive) | 16.8 µM (inactive) | 15.9 µM (inactive) | 12.5 µM (inactive) | 14 µM (inactive) | 21.8 µM (inactive) | 11.8 µM (inactive) | 12.2 µM (inactive) | 16.9 µM (inactive) | 26.5 µM (inactive) | 12.9 µM (inactive) | 24.9 µM (inactive) |
| COc1cc2c(c(O)c1OC)CC1CCC(=O)N1C2c1cccc2ccccc12 (stereo unspecified) | 19.4 µM (inactive) | 13.4 µM (inactive) | 16.1 µM (inactive) | 19.7 µM (inactive) | 17.5 µM (inactive) | 19.8 µM (inactive) | 16.4 µM (inactive) | 30.9 µM (inactive) | 18.9 µM (inactive) | 23.6 µM (inactive) | 15.6 µM (inactive) | 39 µM (inactive) | 35.3 µM (inactive) | 17.6 µM (inactive) | 17.4 µM (inactive) | 20 µM (inactive) | 30.8 µM (inactive) | 23.9 µM (inactive) | 19.5 µM (inactive) |
| C/C(=N\[N+](C)(C)C)c1ccc(C)c(C)c1 | > 10 µM (inactive) | 35.7 µM (inactive) | > 10 µM (inactive) | > 10 µM (inactive) | > 100 µM (inactive) | 39.4 µM (inactive) | > 10 µM (inactive) | > 10 µM (inactive) | > 100 µM (inactive) | 0.752 µM (active) | 14.6 µM (inactive) | 53.5 µM (inactive) | 46.1 µM (inactive) | 77.4 µM (inactive) | > 10 µM (inactive) | 55.1 µM (inactive) | 35.4 µM (inactive) | 24.9 µM (inactive) | > 10 µM (inactive) |
| O=C1CSC(c2cc3cc(Br)ccc3nc2Cl)N1c1ccc(Cl)cc1 (stereo unspecified) | 20.5 µM (inactive) | 14 µM (inactive) | 17.7 µM (inactive) | 35.9 µM (inactive) | 14.7 µM (inactive) |  | 33.1 µM (inactive) | 17.9 µM (inactive) | 21 µM (inactive) | 14.8 µM (inactive) | 17.9 µM (inactive) | 52.2 µM (inactive) | 7.33 µM (inactive) | 32.3 µM (inactive) | 21.1 µM (inactive) | 44.1 µM (inactive) | 7.71 µM (inactive) | 13 µM (inactive) | 18.5 µM (inactive) |
| CCOC(=O)c1sc2nc1CSc1sc(=S)sc1SCc1nc(sc1C(=O)OCC)-c1nc(c(C(=O)OCC)s1)CSc1sc(=S)sc1SCc1nc-2sc1C(=O)OCC | > 10 µM (inactive) | > 10 µM (inactive) | > 10 µM (inactive) | > 10 µM (inactive) | > 10 µM (inactive) | > 10 µM (inactive) | > 10 µM (inactive) | > 10 µM (inactive) | > 10 µM (inactive) | > 10 µM (inactive) | > 10 µM (inactive) | > 10 µM (inactive) | > 10 µM (inactive) | > 10 µM (inactive) |  | > 10 µM (inactive) | > 10 µM (inactive) | > 10 µM (inactive) | > 10 µM (inactive) |
| COc1ccc(/C=C2/S/C(=N\c3ccccc3)N(NC(=O)Cc3ccccc3)C2=O)cc1 | > 100 µM (inactive) | > 100 µM (inactive) | > 100 µM (inactive) | > 100 µM (inactive) | > 100 µM (inactive) | > 100 µM (inactive) | > 100 µM (inactive) | > 100 µM (inactive) | > 100 µM (inactive) | > 100 µM (inactive) | > 100 µM (inactive) | > 100 µM (inactive) | > 100 µM (inactive) | 92.3 µM (inactive) | > 100 µM (inactive) | > 100 µM (inactive) | > 100 µM (inactive) | > 100 µM (inactive) |  |
| O=C1C=CC2(O[C@H](C3CCCCC3)[C@@H](C3CCCCC3)O2)C(SC(=O)c2ccccc2)C1 (stereo partly specified) | 1.43 µM (inactive) | 1.77 µM (inactive) | 2.88 µM (inactive) | 1.92 µM (inactive) | 4.21 µM (inactive) | 1.91 µM (inactive) | 1.39 µM (inactive) | 1.48 µM (inactive) | 0.975 µM (active) | 7.05 µM (inactive) | 5.87 µM (inactive) | 7.24 µM (inactive) | 1.4 µM (inactive) | 1.55 µM (inactive) | 2.14 µM (inactive) | 1.73 µM (inactive) | 1.26 µM (inactive) | 6.98 µM (inactive) |  |
| CC(C)(C)c1cc(OCc2nnc3sc(Cc4ccccc4)nn23)c(Cl)cc1OCc1nnc2sc(Cc3ccccc3)nn12 | 76 µM (inactive) | 15.3 µM (inactive) | 30.8 µM (inactive) | > 100 µM (inactive) | 37.8 µM (inactive) | 13.9 µM (inactive) | 19.3 µM (inactive) | 17.7 µM (inactive) | 9.59 µM (inactive) | 21.3 µM (inactive) | 21.6 µM (inactive) | 15.3 µM (inactive) | 14.5 µM (inactive) | 47.5 µM (inactive) | 29 µM (inactive) | 17.1 µM (inactive) | 3.27 µM (inactive) | 18.8 µM (inactive) | 34.3 µM (inactive) |
| OCC12C3C4C5C3C1C5C42 (stereo unspecified) | > 100 µM (inactive) | > 100 µM (inactive) | > 100 µM (inactive) | > 100 µM (inactive) | > 100 µM (inactive) | > 100 µM (inactive) | > 100 µM (inactive) | > 100 µM (inactive) | > 100 µM (inactive) | > 100 µM (inactive) | > 100 µM (inactive) | > 100 µM (inactive) | > 100 µM (inactive) | > 100 µM (inactive) | > 100 µM (inactive) | > 100 µM (inactive) | > 100 µM (inactive) |  | > 100 µM (inactive) |
| COc1cc(N(CCC#N)CCC#N)ccc1/C=C1\SC(=S)NC1=O | > 100 µM (inactive) | > 100 µM (inactive) | > 100 µM (inactive) | > 100 µM (inactive) | > 100 µM (inactive) | > 100 µM (inactive) | > 100 µM (inactive) | > 100 µM (inactive) | > 100 µM (inactive) | > 100 µM (inactive) | > 100 µM (inactive) | > 100 µM (inactive) | > 100 µM (inactive) | > 100 µM (inactive) | > 100 µM (inactive) | > 100 µM (inactive) | > 100 µM (inactive) | > 100 µM (inactive) | > 100 µM (inactive) |
| Cc1c(S(=O)(=O)O)ccc(/N=N/c2c(O)c(C(=O)O)cc3ccccc23)c1Cl | > 100 µM (inactive) | > 100 µM (inactive) |  | > 62.1 µM (inactive) | > 100 µM (inactive) | > 92.5 µM (inactive) | > 49.8 µM (inactive) | > 100 µM (inactive) | > 100 µM (inactive) | > 100 µM (inactive) | > 100 µM (inactive) | > 100 µM (inactive) | > 100 µM (inactive) | > 100 µM (inactive) | > 100 µM (inactive) | > 100 µM (inactive) | > 100 µM (inactive) | > 100 µM (inactive) | > 86.5 µM (inactive) |
| O=C1/C(=C/c2ccccc2)Oc2cc(O)ccc21 | > 100 µM (inactive) | > 100 µM (inactive) | > 100 µM (inactive) | > 100 µM (inactive) |  | > 100 µM (inactive) | > 100 µM (inactive) | > 100 µM (inactive) | > 100 µM (inactive) | > 100 µM (inactive) | > 100 µM (inactive) | > 100 µM (inactive) | > 100 µM (inactive) | > 100 µM (inactive) | > 100 µM (inactive) | > 100 µM (inactive) | > 100 µM (inactive) | > 100 µM (inactive) | > 100 µM (inactive) |
